This assay addresses T1, NLRP3 inflammasome (Homo sapiens, UniProt Q96P20).
T1 construct: endogenous in cells; host or cells: THP-1 cells, PMA-differentiated and stimulated with LPS and ATP
As to the kind of experiment: THP-1 IL-1β production inhibition test. The conditions noted are these: PMA-treated THP-1 cells, LPS 50 ng/ml + ATP 5 mM, 2 hours, IL-1β in supernatant by ELISA. It is filed as cell-based. The protocol: Test Example 1: THP-1 IL-1β Production Inhibition Test
PMA (phorbol myristate acetate, SIGMA, P1585) was added to THP-1 cells in an amount of 50 ng/mL to culture the cells for 2 days at 37° C. The culture medium was replaced with a serum-free RPMI-1640 medium, and a compound with a known concentration was added thereto to culture the cells at 37° C. for 15 minutes. LPS (Lipopolysaccharide, SIMGA, L2880) and ATP (Adenosine triphosphate, SIGMA, A2383) were added so that final concentrations become 50 ng/ml and 5 mM, respectively, followed by culturing at 37° C. for 2 hours. The supernatants were collected to measure the concentrations of IL-1β by ELISA (DuoSet ELISA human IL-1β, R&D Systems, DY201). The IL-1β concentrations were plotted against log concentrations of test compounds, and an IC50 value was calculated by sigmoid Emax model nonlinear regression analysis.
Example compounds were confirmed to inhibit NLRP3 inflammasome activation and IL-1β production.

SMILES strings stand for the structures.

T1 sequence (Q96P20 whole entry): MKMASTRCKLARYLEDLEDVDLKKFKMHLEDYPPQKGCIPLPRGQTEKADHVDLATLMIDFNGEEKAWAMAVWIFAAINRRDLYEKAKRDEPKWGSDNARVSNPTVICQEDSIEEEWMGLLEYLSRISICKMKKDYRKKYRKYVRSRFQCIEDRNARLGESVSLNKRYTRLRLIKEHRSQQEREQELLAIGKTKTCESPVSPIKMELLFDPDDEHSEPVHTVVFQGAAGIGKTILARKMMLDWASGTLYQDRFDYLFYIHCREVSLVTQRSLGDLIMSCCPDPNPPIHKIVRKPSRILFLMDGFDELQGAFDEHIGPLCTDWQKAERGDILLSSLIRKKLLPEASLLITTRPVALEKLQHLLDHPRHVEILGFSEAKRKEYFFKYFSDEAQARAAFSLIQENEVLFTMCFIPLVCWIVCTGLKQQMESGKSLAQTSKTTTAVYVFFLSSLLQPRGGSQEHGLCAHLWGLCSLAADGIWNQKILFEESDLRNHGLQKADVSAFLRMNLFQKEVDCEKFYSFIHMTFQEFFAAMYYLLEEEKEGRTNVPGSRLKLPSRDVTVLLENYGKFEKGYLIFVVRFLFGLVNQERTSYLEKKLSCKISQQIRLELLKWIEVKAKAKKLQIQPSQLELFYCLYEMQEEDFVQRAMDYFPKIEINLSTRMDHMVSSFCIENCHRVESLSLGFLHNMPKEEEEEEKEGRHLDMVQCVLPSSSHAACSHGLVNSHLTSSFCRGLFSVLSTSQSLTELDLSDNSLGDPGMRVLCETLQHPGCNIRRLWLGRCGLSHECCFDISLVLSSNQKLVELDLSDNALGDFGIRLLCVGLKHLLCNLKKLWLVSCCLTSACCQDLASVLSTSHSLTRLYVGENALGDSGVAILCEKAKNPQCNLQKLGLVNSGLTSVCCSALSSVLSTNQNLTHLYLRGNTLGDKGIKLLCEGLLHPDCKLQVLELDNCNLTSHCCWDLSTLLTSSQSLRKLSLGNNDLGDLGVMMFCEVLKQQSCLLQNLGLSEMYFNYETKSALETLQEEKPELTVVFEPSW

Regarding `CC(=O)N1CCN([C@@H]2CCCC[C@H]2O)c2nnc(-c3ccc(C(F)(F)F)cc3O)c(C)c2C1` [Example 40, 1-{9-[(1R,2R)-2-hydroxycyclohexyl]-3-[2-hydroxy-4-(trifluoromethyl)phenyl]-4-methyl-5,7,8,9-tetrahydro-6H-pyridazino[3,4-e][1,4]diazepin-6-yl}ethan-1-one], the IC50 is 190 nM.

As to `CCN1CCN([C@@H]2CCCC[C@H]2O)c2nnc(-c3ccc(C(F)(F)F)cc3O)c(C)c2C1` [Example 41, 2-{6-ethyl-9-[(1R,2R)-2-hydroxycyclohexyl]-4-methyl-6,7,8,9-tetrahydro-5H-pyridazino[3,4-e][1,4]diazepin-3-yl}-5-(trifluoromethyl)phenol], the IC50 is 26 nM.

`Cc1c(-c2ccc(C(F)(F)F)cc2O)nnc2c1CN(C)[C@H](C)CN2[C@@H]1CCCC[C@H]1O` [Example 42]: the IC50 turned out to be 60 nM.

Turning to `Cc1c(-c2ccc(C(F)(F)F)cc2O)nnc2c1CCCN2c1cc[nH]n1` [Example 43, 2-[4-methyl-8-(1H-pyrazol-3-yl)-5,6,7,8-tetrahydropyrido[2,3-c]pyridazin-3-yl]-5-(trifluoromethyl)phenol], the concentration for half-maximal inhibition (IC50) worked out at 230 nM.

Consider `Cc1c(-c2ccc(C(F)F)cc2O)nnc2c1CN(C)CCN2[C@@H]1CCCC[C@H]1O` [Example 44, 5-(difluoromethyl)-2-{9-[(1R,2R)-2-hydroxycyclohexyl]-4,6-dimethyl-6,7,8,9-tetrahydro-5H-pyridazino[3,4-e][1,4]diazepin-3-yl}phenol], for which the IC50 was 30 nM.

Consider `Cc1c(-c2ccc(OC(F)F)cc2O)nnc2c1CCN2[C@H]1CCNC1=O` [Example 45, (3S)-3-{3-[4-(difluoromethoxy)-2-hydroxyphenyl]-4-methyl-5,6-dihydro-7H-pyrrolo[2,3-c]pyridazin-7-yl}pyrrolidin-2-one], for which the IC50 was 28 nM.

In general, IC50 refers to the point on the concentration scale where inhibition reaches its midpoint.

These data come from patent publication US20260209233A1, “ANNULATED PYRIDAZINE DERIVATIVE” (Tenvie Therapeutics, Inc., priority 2022, published 2026).
